{"source": "patent US6420430B1", "about": "“Use of inhibitors of the sodium-hydrogen exchanger for preparing a medicament for preventing age-related disorders, and for prolonging life” (Aventis Pharma Deutschland GmbH, priority 1998, dated 2002)", "key": {"[1]": {"system": "hypertensive rats", "conditions": "hypertensive rats only; Circulation 1997; 96: 3164-3172; cited from earlier work"}, "[2]": {"system": "normotensive Wistar-Kyoto rats (WKY rats)", "assay": "Life-long treatment of normotensive WKY rats with cariporide via the feed: lifespan, cumulative survival rate, onset of age-related cancer", "assay_type": "in vivo, rat", "description": "The effect of a life-long treatment of young normotensive Wistar-Kyoto rats (WKY rats) with the sodium-hydrogen exchanger (“NHE”) inhibitor cariporide was investigated. In addition to the primary end point, the lifespan, surrogate parameters were studied and measured, for example the hypertrophy of the left ventricle of the heart, heart function, metabolism and endothelial function. In addition, organs, such as heart, kidneys, skeletal muscles and eyes, were examined histomorphologically.\nNinety one-month-old WKY rats were randomized into two groups of placebo-treated (n=45) and cariporide-treated (n=45) rats. Cariporide was administered via the feed (active compound content 0.3%).\nMale WKY rats were purchased from Møllegrad Denmark. The animals (3 per cage) were kept under standardized conditions with respect to temperature, atmospheric humidity and light. The rats had free access to a standard diet (Altromin® maintenance diet 1320, sodium content 0.2%) and received drinking water ad libitum. All experiments were carried out in accordance with the German Law on the Protection of Animals.\nNinety one-month-old animals were randomized into two groups of in each case 45 animals. After randomization, placebo and cariporide were administered to the rats via the drinking water and the feed, respectively, a proportion of 0.3% of the feed ensuring complete blockage of the NHE for 24 hours.\nAt intervals of 3 months, the body weight was determined and the blood pressure was measured using the tail plethysmography method. Events of death were registered after they had occurred.\nAll data are stated as mean±standard deviations. The survival data were analyzed in accordance with Kaplan-Meier, followed by a Mantel-Cox log-rank test. Furthermore, variance analysis (ANOVA) followed by a Student-Newman-Keuls test were employed. Null hypotheses were rejected at p<0.05."}, "[3]": {"system": "WKY rats", "assay": "Interim analysis after 30 months: organ weights (heart, ventricles, kidneys, spleen)", "assay_type": "in vivo, rat", "description": "(§1) The interim analysis was carried out after 80% of the placebo-treated animals had died; this was the case after 30 months. 10 animals of each group were selected at random and anesthetized (hexobarbital, 80 mg·kg^−1, i.p.). Blood samples were then taken, and the thoracic aortae and the hearts were prepared and biochemically and/or functionally examined (Linz et al., 1997). In accordance with the method described by Langendorff, the hearts were perfused with an oxygen-saturated (95% O2, […]), non-circulating Krebs-Henseleit solution of the following composition (mmol/l): NaCl, 118; KCl, 4.7; CaCl2, 2.5; MgSO4, 1.6; NaHCO3, 24.9; KH2PO4, 1.2; glucose, 5.5; Na-pyruvate, 2.0, using a perfusion pressure of 60 mm Hg. The pressure in the left ventricle and the pulse frequency of the heart were measured using a balloon catheter. The coronary blood flow was determined using an electromagnetic flow gage. After a washing phase of 5 minutes, 1 ml of the coronary effluent was taken off for measuring the lactate concentrations and the lactate dehydrogenase and creatine kinase activities. The weights of the entire heart and the weights of the left and the right ventricle were then determined. The left ventricle was fixed in 10% strength neutral buffered formalin solution and embedded in paraffin for light-microscopic examination."}, "[4]": {"system": "isolated heart of WKY rats", "assay": "Function and metabolism of the isolated heart (Langendorff) after 30 months of treatment", "assay_type": "in vivo, rat", "conditions": "n = 10 per group", "description": "as §1"}, "[5]": {"system": "isolated thoracic aorta of WKY rats", "assay": "Vessel function on isolated rings of the thoracic aorta: endothelium-dependent relaxation by acetylcholine after KCl precontraction", "assay_type": "in vivo, rat", "conditions": "KCl-precontracted aorta rings, 30-month-old rats", "description": "The interim analysis was carried out after 80% of the placebo-treated animals had died; this was the case after 30 months. 10 animals of each group were selected at random and anesthetized (hexobarbital, 80 mg·kg^−1, i.p.). Blood samples were then taken, and the thoracic aortae and the hearts were prepared and biochemically and/or functionally examined (Linz et al., 1997). The aorta was introduced into Tyrode's solution and freed from the surrounding fatty tissue. Segments of 2 mm were then sliced into rings, and these rings were introduced in a temperature-controlled (37° C.) organ bath (10 ml) with Tyrode's solution (composition in mol/l: NaCl 136.9; NaHCO3 11.9; KCl 2.7; CaCl2 0.5; MgCl2 2.0; NaHPO4 0.4; glucose 5.5; pH=7.4), and 95% O2/5% CO2 was bubbled through the solution. Each ring was mounted vertically between two fine steel clamps. The upper clamp was connected to a force sensor. The force signal was recorded using a computer-assisted biosignal analyzer. The aorta rings were suspended using a passive tension of 4.9 mN. After an adaptation period of one hour, the rings were contracted using potassium chloride (20 mmol/l). After a plateau had been reached, increasing concentrations of acetylcholine of 10^−8, 10^−7, 10^−6 and 10^−5 mol/l were added to the bath, triggering an endothelium dependent relaxation."}, "[6]": {"system": "WKY rats", "assay": "Histomorphological examination of organs (heart, kidneys, skeletal muscles, eyes, liver)", "assay_type": "in vivo, rat", "conditions": "for age-related histomorphological organ changes (connective tissue in heart muscle, muscular dystrophy, tubulointerstitial kidney damage, retina atrophy): life-long treatment, WKY rats", "description": "The effect of a life-long treatment of young normotensive Wistar-Kyoto rats (WKY rats) with the sodium-hydrogen exchanger (“NHE”) inhibitor cariporide was investigated. In addition to the primary end point, the lifespan, surrogate parameters were studied and measured, for example the hypertrophy of the left ventricle of the heart, heart function, metabolism and endothelial function. In addition, organs, such as heart, kidneys, skeletal muscles and eyes, were examined histomorphologically. In accordance with the method described by Langendorff, the hearts were perfused with an oxygen-saturated (95% O2, […]), non-circulating Krebs-Henseleit solution of the following composition (mmol/l): NaCl, 118; KCl, 4.7; CaCl2, 2.5; MgSO4, 1.6; NaHCO3, 24.9; KH2PO4, 1.2; glucose, 5.5; Na-pyruvate, 2.0, using a perfusion pressure of 60 mm Hg. The pressure in the left ventricle and the pulse frequency of the heart were measured using a balloon catheter. The coronary blood flow was determined using an electromagnetic flow gage. After a washing phase of 5 minutes, 1 ml of the coronary effluent was taken off for measuring the lactate concentrations and the lactate dehydrogenase and creatine kinase activities. The weights of the entire heart and the weights of the left and the right ventricle were then determined. The left ventricle was fixed in 10% strength neutral buffered formalin solution and embedded in paraffin for light-microscopic examination."}}, "note": "Entries after “also recorded” stand apart in the source; their conditions may differ."}
{"smiles": "CCOC(=O)[C@H](CCc1ccccc1)N[C@@H](C)C(=O)N1[C@H](C(=O)O)C[C@@H]2CCC[C@@H]21", "note": "[ramipril]", "values": [{"measurement": "effect on lifespan", "setting": "[1]", "value": "life-prolonging effect"}]}
{"smiles": "CC(C)c1ccc(C(=O)N=C(N)N)cc1S(C)(=O)=O.CS(=O)(=O)O", "note": "[Cariporide, cariporide]", "values": [{"measurement": "Survival rate in percent", "setting": "[2]; 19 months", "value": 100, "unit": "%"}, {"measurement": "Survival rate in percent", "setting": "[2]; 20 months", "value": 100, "unit": "%"}, {"measurement": "Survival rate in percent", "setting": "[2]; 21 months", "value": 100, "unit": "%"}, {"measurement": "Survival rate in percent", "setting": "[2]; 22 months", "value": 100, "unit": "%"}, {"measurement": "Survival rate in percent", "setting": "[2]; 23 months", "value": 97, "unit": "%"}, {"measurement": "Survival rate in percent", "setting": "[2]; 24 months", "value": 97, "unit": "%"}, {"measurement": "Survival rate in percent", "setting": "[2]; 25 months", "value": 97, "unit": "%"}, {"measurement": "Survival rate in percent", "setting": "[2]; 26 months", "value": 97, "unit": "%"}, {"measurement": "Survival rate in percent", "setting": "[2]; 27 months", "value": 97, "unit": "%"}, {"measurement": "Survival rate in percent", "setting": "[2]; 28 months", "value": 97, "unit": "%"}, {"measurement": "Survival rate in percent", "setting": "[2]; 29 months", "value": 92, "unit": "%"}, {"measurement": "Survival rate in percent", "setting": "[2]; 30 months", "value": 89, "unit": "%"}, {"measurement": "Survival rate in percent", "setting": "[2]; 31 months", "value": 80, "unit": "%"}, {"measurement": "Survival rate in percent", "setting": "[2]; 32 months", "value": 75, "unit": "%"}, {"measurement": "Survival rate in percent", "setting": "[2]; 33 months", "value": 67, "unit": "%"}, {"measurement": "Survival rate in percent", "setting": "[2]; 34 months", "value": 59, "unit": "%"}, {"measurement": "Survival rate in percent", "setting": "[2]; 35 months", "value": 49, "unit": "%"}, {"measurement": "Survival rate in percent", "setting": "[2]; 36 months", "value": 38, "unit": "%"}, {"measurement": "Survival rate in percent", "setting": "[2]; 37 months", "value": 28, "unit": "%"}, {"measurement": "Survival rate in percent", "setting": "[2]; 38 months", "value": 17, "unit": "%"}, {"measurement": "Survival rate in percent", "setting": "[2]; 39 months", "value": 10, "unit": "%"}, {"measurement": "maximum lifespan", "setting": "[2]; life-long treatment, 0.3% in feed, WKY rats, placebo 30 months", "value": 39, "unit": "months"}, {"measurement": "onset of age-related cancer", "setting": "[2]; life-long treatment, WKY rats, listed as cariporide", "value": "delayed onset; also recorded: delayed significantly"}, {"measurement": "life extension", "setting": "[2]; maximum lifespan versus placebo", "value": 30, "unit": "%"}, {"measurement": "Heart weight, Heart (total)", "setting": "[3]; n = 10/group", "value": "235 ± 10 mg/100 g of body weight"}, {"measurement": "Heart weight, Left ventricle", "setting": "[3]; n = 10/group", "value": "193 ± 8 mg/100 g of body weight"}, {"measurement": "Heart weight, Right ventricle", "setting": "[3]; n = 10/group", "value": "36 ± 2 mg/100 g of body weight"}, {"measurement": "age-related hypertrophy of the heart", "setting": "[3]; versus placebo-treated animals", "value": "prevented"}, {"measurement": "CF (coronary flow)", "setting": "[4]", "value": "34.6 ± 0.7", "unit": "mL/min/g"}, {"measurement": "CK (creatine kinase in the coronary effluent)", "setting": "[4]", "value": "0.20 ± 0.02", "unit": "mU/min/g heart wwt"}, {"measurement": "HR", "setting": "[4]", "value": "182 ± 7", "unit": "beats/min"}, {"measurement": "LDH (lactate dehydrogenase in the coronary effluent)", "setting": "[4]", "value": "0.42 ± 0.02", "unit": "mU/min/g heart wwt"}, {"measurement": "LVP (pressure in the left ventricle)", "setting": "[4]", "value": "111.5 ± 3.9", "unit": "mm Hg"}, {"measurement": "Lactate in the coronary effluent", "setting": "[4]", "value": "2.5 ± 0.13", "unit": "μmol/min/g heart wwt"}, {"measurement": "dP/dtmax (constriction rate of the left ventricle)", "setting": "[4]", "value": "4432 ± 121", "unit": "mm Hg/s"}, {"measurement": "Vessel function on the aorta (relaxation in %)", "setting": "[5]; ACh 10^−5 mol/l", "value": "95 ± 10", "unit": "%"}, {"measurement": "Vessel function on the aorta (relaxation in %)", "setting": "[5]; ACh 10^−6 mol/l", "value": "85 ± 8", "unit": "%"}, {"measurement": "Vessel function on the aorta (relaxation in %)", "setting": "[5]; ACh 10^−7 mol/l", "value": "50 ± 6", "unit": "%"}, {"measurement": "Vessel function on the aorta (relaxation in %)", "setting": "[5]; ACh 10^−8 mol/l", "value": "5 ± 2", "unit": "%"}, {"measurement": "histomorphology of the livers", "setting": "[6]; compared with control animals", "value": "unchanged"}, {"measurement": "age-related histomorphological organ changes (connective tissue in heart muscle, muscular dystrophy, tubulointerstitial kidney damage, retina atrophy)", "setting": "[6]", "value": "drastically reduced"}, {"measurement": "age-related histomorphological organ changes (connective tissue in heart muscle, muscular dystrophy, tubulointerstitial kidney damage, retina atrophy)", "setting": "[6]; listed as cariporide", "value": "reduced drastically or prevented completely"}]}
